In article PMC7872314, “Modeling Bioavailable Concentrations in Zebrafish Cell Lines and Embryos Increases the Correlation of Toxicity Potencies across Test Systems” (Environmental Science & Technology, 2020):
Like-named read-outs stand apart in the source and are kept apart here.

Columns and labels:
zebrafish embryos [1] = tested on: zebrafish embryos; parameters: method as in earlier work; settings: nominal, cited from earlier work
[2] = tested on: ZFL (hepatocytes) cell line; assay: cells; format: cell-based, zebrafish (Danio rerio); settings: Danio rerio, Hepatocyte
[3] = tested on: ZFL (hepatocytes) cell line; assay: cells; format: cell-based, zebrafish (Danio rerio); settings: Danio rerio, Hepatocyte; remark: listed apart in the source
[4] = tested on: ZF4 (fibroblasts) cell line; assay: MTS assay (MTS/BCA multiplex), NAD(P)H metabolism; format: cell-based, zebrafish (Danio rerio); settings: Danio rerio, Fibroblast
[5] = tested on: ZF4 (fibroblasts) cell line; assay: ATP assay (ATP/LDH multiplex), ATP metabolism; format: cell-based, zebrafish (Danio rerio); settings: Danio rerio, Fibroblast
[6] = tested on: ZF4 (fibroblasts) cell line; assay: Neutral red, absorbance (NRa), AB/CFDA/NR multiplex, lysosome stability; format: cell-based, zebrafish (Danio rerio); settings: Danio rerio, Fibroblast
[7] = tested on: ZFL (hepatocytes) cell line; assay: cells; format: cell-based, zebrafish (Danio rerio); settings: Danio rerio, Hepatocyte; remark: listed apart in the source
[8] = tested on: ZFL (hepatocytes) cell line; assay: cells; format: cell-based, zebrafish (Danio rerio); settings: Danio rerio, Hepatocyte; remark: listed apart in the source
[9] = tested on: ZFL (hepatocytes) cell line; assay: cells; format: cell-based, zebrafish (Danio rerio); settings: Danio rerio, Hepatocyte; remark: listed apart in the source
[10] = tested on: ZF4 (fibroblasts) cell line; assay: CFDA endpoint of AB/CFDA/NR multiplex, membrane stability; format: cell-based, zebrafish (Danio rerio); settings: Danio rerio, Fibroblast
[11] = tested on: ZF4 (fibroblasts) cell line; assay: Neutral red, fluorescence (NRf), AB/CFDA/NR multiplex, lysosome stability; format: cell-based, zebrafish (Danio rerio); settings: Danio rerio, Fibroblast
[12] = ref Comptox, PubChem or DrugBank; cited from earlier work
ZF4 and ZFL cell lines = assay: Cytotoxicity assays, all endpoints, both cell lines (mean/range); format: cell-based, zebrafish (Danio rerio); settings: 48 h
[13] = tested on: ZFL (hepatocytes) cell line; assay: cells; format: cell-based, zebrafish (Danio rerio); settings: Danio rerio, Hepatocyte; remark: listed apart in the source
[14] = tested on: ZF4 (fibroblasts) cell line; assay: BCA assay (MTS/BCA multiplex), protein amount; format: cell-based, zebrafish (Danio rerio); settings: Danio rerio, Fibroblast
[15] = tested on: ZF4 (fibroblasts) cell line; assay: alamarBlue (AB) endpoint of AB/CFDA/NR multiplex, cellular respiration; format: cell-based, zebrafish (Danio rerio); settings: Danio rerio, Fibroblast
[16] = tested on: ZFL (hepatocytes) cell line; assay: cells; format: cell-based, zebrafish (Danio rerio); settings: Danio rerio, Hepatocyte; remark: listed apart in the source
zebrafish embryos [17] = assay: animal or person; format: in vivo, zebrafish (Danio rerio)

## CCC(C)C1OC2(CCC1C)CC1CC(CC=C(C)C(OC3CC(OC)C(OC4CC(OC)C(O)C(C)O4)C(C)O3)C(C)C=CC=C3COC4C(O)C(C)=CC(C(=O)O1)C34O)O2 (stereo not drawn) [Ivermectin, ivermectin]
Zebrafish embryos [1]; 144 hpf, converted, listed as Ive
  EC50: 0.503 µM
Zebrafish embryos [1]; log10
  logEC50 144 hpf: -6.299 M
[2]; NR-abs - ZFL, log10 of IC50, read-out: LogIC50 (converted)
  IC50: 2.55 µM
[2]; NR-abs - ZFL, read-out: IC50
  IC50: 2.55 µM
[2]; ZFL, 48 h exposure, nominal, log10, read-out: logIC50 (log10 IC50;nom) NRa (converted)
  IC50: 2.57 µM
[2]; ZFL, 48 h exposure, nominal, read-out: IC50;nom NRa
  IC50: 2.55 µM
[3]; BCA - ZFL, log10 of IC50, read-out: LogIC50 (converted)
  IC50: 7.08 µM
[3]; BCA - ZFL, read-out: IC50
  IC50: 7.08 µM
[3]; ZFL, 48 h exposure, nominal, log10, read-out: logIC50 (log10 IC50;nom) BCA (converted)
  IC50: 7.08 µM
[3]; ZFL, 48 h exposure, nominal, read-out: IC50;nom BCA
  IC50: 7.08 µM
[4]; MTS - ZF4, log10 of IC50, read-out: LogIC50 (converted)
  IC50: 13.6 µM
[4]; MTS - ZF4, read-out: IC50
  IC50: 13.6 µM
[4]; ZF4, 48 h exposure, nominal, log10, read-out: logIC50 (log10 IC50;nom) MTS (converted)
  IC50: 13.5 µM
[4]; ZF4, 48 h exposure, nominal, read-out: IC50;nom MTS
  IC50: 13.6 µM
[5]; ATP - ZF4, log10 of IC50, read-out: LogIC50 (converted)
  IC50: 15.4 µM
[5]; ATP - ZF4, read-out: IC50
  IC50: 15.4 µM
[5]; ZF4, 48 h exposure, nominal, log10, read-out: logIC50 (log10 IC50;nom) ATP (converted)
  IC50: 15.5 µM
[5]; ZF4, 48 h exposure, nominal, read-out: IC50;nom ATP
  IC50: 15.4 µM
[6]; NR-abs - ZF4, log10 of IC50, read-out: LogIC50 (converted)
  IC50: 15.4 µM
[6]; NR-abs - ZF4, read-out: IC50
  IC50: 15.4 µM
[6]; ZF4, 48 h exposure, nominal, log10, read-out: logIC50 (log10 IC50;nom) NRa (converted)
  IC50: 15.5 µM
[6]; ZF4, 48 h exposure, nominal, read-out: IC50;nom NRa
  IC50: 15.4 µM
[7]; AB - ZFL, log10 of IC50, read-out: LogIC50 (converted)
  IC50: 6.58 µM
[7]; AB - ZFL, read-out: IC50
  IC50: 6.58 µM
[7]; ZFL, 48 h exposure, nominal, log10, read-out: logIC50 (log10 IC50;nom) AB (converted)
  IC50: 6.61 µM
[7]; ZFL, 48 h exposure, nominal, read-out: IC50;nom AB
  IC50: 6.58 µM
[8]; ATP - ZFL, log10 of IC50, read-out: LogIC50 (converted)
  IC50: 2.61 µM
[8]; ATP - ZFL, read-out: IC50
  IC50: 2.61 µM
[8]; ZFL, 48 h exposure, nominal, log10, read-out: logIC50 (log10 IC50;nom) ATP (converted)
  IC50: 2.63 µM
[8]; ZFL, 48 h exposure, nominal, read-out: IC50;nom ATP
  IC50: 2.61 µM
[9]; MTS - ZFL, log10 of IC50, read-out: LogIC50 (converted)
  IC50: 10.2 µM
[9]; MTS - ZFL, read-out: IC50
  IC50: 10.2 µM
[9]; ZFL, 48 h exposure, nominal, log10, read-out: logIC50 (log10 IC50;nom) MTS (converted)
  IC50: 10.2 µM
[9]; ZFL, 48 h exposure, nominal, read-out: IC50;nom MTS
  IC50: 10.2 µM
[10]; CFDA - ZF4, log10 of IC50, read-out: LogIC50 (converted)
  IC50: 18.2 µM
[10]; CFDA - ZF4, read-out: IC50
  IC50: 18.2 µM
[10]; ZF4, 48 h exposure, nominal, log10, read-out: logIC50 (log10 IC50;nom) CFDA (converted)
  IC50: 18.2 µM
[10]; ZF4, 48 h exposure, nominal, read-out: IC50;nom CFDA
  IC50: 18.2 µM
[11]; NR-fluo - ZF4, log10 of IC50, read-out: LogIC50 (converted)
  IC50: 18.1 µM
[11]; NR-fluo - ZF4, read-out: IC50
  IC50: 18.1 µM
[11]; ZF4, 48 h exposure, nominal, log10, read-out: logIC50 (log10 IC50;nom) NRf (converted)
  IC50: 18.2 µM
[11]; ZF4, 48 h exposure, nominal, read-out: IC50;nom NRf
  IC50: 18.1 µM
[12]
  Physiological charge: 0
  Water Solubility: insoluble
  logKow: 5.83
  pKa (Strongest Acidic): 12.47
  pKa (Strongest Basic): -3.4
ZF4 and ZFL cell lines; Danio rerio, read-out: Mean log IC50nom, mean of all cytotoxicity endpoints (without LDH) in ZF4 and ZFL, 48 h, log10 (converted)
  IC50: 9.12 µM
ZF4 and ZFL cell lines; mean of all cytotoxicity endpoints (without LDH) in ZF4 and ZFL, log10, listed as Ive
  Mean log IC50nom: -5.042 M
[13]; NR-fluo - ZFL, log10 of IC50, read-out: LogIC50 (converted)
  IC50: 3.34 µM
[13]; NR-fluo - ZFL, read-out: IC50
  IC50: 3.34 µM
[13]; ZFL, 48 h exposure, nominal, log10, read-out: logIC50 (log10 IC50;nom) NRf (converted)
  IC50: 3.31 µM
[13]; ZFL, 48 h exposure, nominal, read-out: IC50;nom NRf
  IC50: 3.34 µM
[14]; BCA - ZF4, log10 of IC50, read-out: LogIC50 (converted)
  IC50: 16.2 µM
[14]; BCA - ZF4, read-out: IC50
  IC50: 16.2 µM
[14]; ZF4, 48 h exposure, nominal, log10, read-out: logIC50 (log10 IC50;nom) BCA (converted)
  IC50: 16.2 µM
[14]; ZF4, 48 h exposure, nominal, read-out: IC50;nom BCA
  IC50: 16.2 µM
[15]; AB - ZF4, log10 of IC50, read-out: LogIC50 (converted)
  IC50: 10.2 µM
[15]; AB - ZF4, read-out: IC50
  IC50: 10.2 µM
[15]; ZF4, 48 h exposure, nominal, log10, read-out: logIC50 (log10 IC50;nom) AB (converted)
  IC50: 10.2 µM
[15]; ZF4, 48 h exposure, nominal, read-out: IC50;nom AB
  IC50: 10.2 µM
[16]; CFDA - ZFL, log10 of IC50, read-out: LogIC50 (converted)
  IC50: 14.1 µM
[16]; CFDA - ZFL, read-out: IC50
  IC50: 14.1 µM
[16]; ZFL, 48 h exposure, nominal, log10, read-out: logIC50 (log10 IC50;nom) CFDA (converted)
  IC50: 14.1 µM
[16]; ZFL, 48 h exposure, nominal, read-out: IC50;nom CFDA
  IC50: 14.1 µM
Zebrafish embryos [17]; 48 hpf time point less sensitive than 144 hpf
  difference in toxicity (EC50;nom) between 48 hpf and 144 hpf: marginally more toxic
Zebrafish embryos [17]; 48 hpf, nominal, log10, listed as Ive
  log EC50;nom (mFET): -5.766 M
Zebrafish embryos [17]; Danio rerio, 48 hpf, nominal, log10, read-out: log EC50;nom (mFET) (converted)
  EC50: 1.7 µM
Zebrafish embryos [17]; Danio rerio, 48 hpf, nominal, read-out: EC50;nom (embryo)
  EC50: 1.5 µg/mL
Zebrafish embryos [17]; Danio rerio, read-out: EC50 48hpf
  EC50: 1.71 µM
Zebrafish embryos [17]; Danio rerio, read-out: EC50;nom (mFET)
  EC50: 1.71 µM
Zebrafish embryos [17]; zebrafish, in vivo, listed as Ive, read-out: EC50;nom (mFET)
  EC50: 1.71 µM
